In brackets after ≈: the same amount, converted by molar mass.
Experiments:
Apis mellifera = conditions: acute, mortality
Daphnia magna = conditions: chronic/long-term; duration: 21 days; reproduction
Rattus norvegicus = conditions: for NOAEL: clinical chemistry
Mus musculus = conditions: oral
Oncorhynchus mykiss = conditions: chronic/long-term; duration: 96 days; growth
Coturnix japonica = conditions: acute; oral; diet; mortality
Aphidius rhopalosiphi [1] = conditions: chronic/long-term; reproduction
Canidae = conditions: short-term; duration: 28 days; oral; Dog Other; clinical chemistry
Tagia sp. = conditions: acute; mortality
[2] = chronic
Lepomis macrochirus = conditions: acute; duration: 96 hours; mortality
Aphidius rhopalosiphi [3] = assay: LR50; higher = less toxic; conditions: acute; duration: 48 hours; mortality

Which LD50 (Apis mellifera; duration: 48 hours, dermal) does the source give for `COP(=S)(OC)SCN1C(=O)c2ccccc2C1=O` [Phosmet] here?
The LD50 was 0.22 µg/piece.

And the LD50 (Apis mellifera; oral, unspecified)?
Its LD50 is 0.37 µg/piece.

And the NOEC (Daphnia magna)?
Its NOEC is 0.00078 mg/L.

What about the NOAEL (Rattus norvegicus; acute) of the same compound?
Its NOAEL is 4.5 mg/kg-day.

And the LD50 (Rattus norvegicus; acute, oral, mortality)?
The LD50 was 113 mg/kg.

What about the NOAEC (Rattus norvegicus; reproduction developmental) of the same compound?
Its NOAEC is 1.5 mg/kg-day.

And the NOAEL (Rattus norvegicus; subchronic, duration: 13 weeks)?
The NOAEL was 1.5 mg/kg-day.

And the NOAEL (Rattus norvegicus; subchronic, duration: 90 days, oral)?
Its NOAEL is 2 mg/kg-day.

What about the LD50 (Colinus virginianus; acute, oral, mortality) of the same compound?
Its LD50 is 57 mg/kg.

And the NOEC (Colinus virginianus; reproduction developmental)?
The NOEC was 7.5 mg/kg-day.

What about the LOAEL (Mus musculus; chronic, duration: 2 years, diet, neurology) of the same compound?
The LOAEL was 1 mg/kg-day.

And the NOAEL (Mus musculus; short-term, duration: 28 days, clinical chemistry)?
Its NOAEL is 2 mg/kg-day.

And the NOEC (Oncorhynchus mykiss)?
The NOEC was 0.0032 mg/L.

What about the LC50 (Coturnix japonica) of the same compound?
The LC50 was 406 mg/kg-day.

What about the LEL (Aphidius rhopalosiphi [1]) of the same compound?
Its LEL is 1.41 g/ha.

And the NOAEL (Canidae)?
The NOAEL was 2 mg/kg-day.

What about the LC50 (Tagia sp.) of the same compound?
The LC50 was 104 mg/kg.

And the NOEC [2]?
The NOEC was 0.001 mg/L.

What about the LC50 (Lepomis macrochirus) of the same compound?
The LC50 was 0.0197 µg/mL (≈ 0.0621 µM).

And the LR50 (Aphidius rhopalosiphi [3])?
The LR50 was 1.95 g/ha.
